What was measured:
OE19 (3A1) = biological target: T1, OE19 (3A1) (Homo sapiens, UniProt P30838); experiment: Cellular ALDEFLUOR assay in OE19 cells (preferential ALDH3A1 expression)
T1 sequence (P30838 1-453): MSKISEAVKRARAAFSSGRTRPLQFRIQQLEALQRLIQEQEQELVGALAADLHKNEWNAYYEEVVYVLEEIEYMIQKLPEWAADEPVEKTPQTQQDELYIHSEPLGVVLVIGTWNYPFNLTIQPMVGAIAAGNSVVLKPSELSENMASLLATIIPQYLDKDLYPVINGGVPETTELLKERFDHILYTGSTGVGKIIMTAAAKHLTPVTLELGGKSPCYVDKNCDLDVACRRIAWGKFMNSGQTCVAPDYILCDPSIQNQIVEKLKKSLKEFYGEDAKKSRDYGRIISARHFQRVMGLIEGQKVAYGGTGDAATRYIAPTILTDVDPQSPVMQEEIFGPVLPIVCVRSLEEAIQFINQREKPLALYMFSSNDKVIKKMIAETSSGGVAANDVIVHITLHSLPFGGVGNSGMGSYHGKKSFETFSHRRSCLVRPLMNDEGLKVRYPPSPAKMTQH

Human ALDH3A1 = biological target: T2, Human ALDH3A1 (Homo sapiens, UniProt P30838); experiment: ALDH3A1 biochemical assay (benzaldehyde/NADP+, diaphorase-resazurin readout, 1,536-well)
T2 sequence (P30838 1-453): T1 sequence (P30838 1-453)

[1] = Table S5, biochemical curve class
[2] = Table S4, biochemical curve class

Row | AC50 (OE19 (3A1)) [nM] | Cell_Efficacy (OE19 (3A1); Table S5, OE19 cells) | Cell_CC-v2 (OE19 (3A1); Table S5, cellular curve class) | AC50 (Human ALDH3A1) [nM] | Efficacy (Human ALDH3A1; Table S5, biochemical) | CC-v2 (Human ALDH3A1; [1]) | Cell_Efficacy (OE19 (3A1); Table S4, OE19 cells) | Cell_CC-v2 (OE19 (3A1); Table S4, cellular curve class) | Efficacy (Human ALDH3A1; Table S4, biochemical) | CC-v2 (Human ALDH3A1; [2]) | SMILES
1 | 1360 | -77.80 | -1.4 | 11.2 | -96.06 | -1.1 | – | – | – | – | O=C(NCc1ccc(Br)c(C(F)(F)F)c1)c1csc(N2CCN(c3cccc(C(F)(F)F)c3)CC2)n1 [NCGC01396480-01]
2 | 1570 | – | – | 650 | – | – | -95.95 | -1.1 | -87.41 | -1.1 | Cc1cccc(CNC(=O)c2csc(N3CCN(c4cc(F)cc(F)c4)CC3)n2)c1 [NCGC01211133-01]
3 | 282 | -76.28 | -1.2 | 447 | -37.12 | -1.2 | – | – | – | – | CC(C)(C)c1cccc(CNC(=O)c2csc(N3CCN(c4cccc(C(F)(F)F)c4)CC3)n2)c1 [NCGC01407765-01]
4 | 8810 | – | – | 6470 | – | – | -91.42 | -1.1 | -51.05 | -1.2 | COc1ccc(N2CCN(c3nc(C(=O)NCc4cccc(C)c4)cs3)CC2)cc1OC [NCGC01211669-01]
5 | – | 0.00 | 4 | 15.9 | -100.89 | -1.1 | – | – | – | – | COc1cc(CNC(=O)c2csc(N3CCN(c4cccc(C(F)(F)F)c4)CC3)n2)ccc1F [NCGC01396486-01]
6 | 342 | -73.69 | -1.4 | 39.8 | -98.89 | -1.1 | – | – | – | – | O=C(NCc1ccc2c(c1)COC2=O)c1csc(N2CCN(c3cccc(C(F)(F)F)c3)CC2)n1 [NCGC01396481-01]
7 | 11200 | -62.69 | -1.4 | – | 0.00 | 4 | – | – | – | – | O=C(NCc1ccccc1-c1ccc(Cl)cc1Cl)c1csc(N2CCN(c3cccc(C(F)(F)F)c3)CC2)n1 [NCGC01407762-01]
8 | 91 | -83.99 | -1.1 | 75 | -78.48 | -1.2 | – | – | – | – | Cc1ccccc1-c1cccc(CNC(=O)c2csc(N3CCN(c4cccc(C(F)(F)F)c4)CC3)n2)c1 [NCGC01407985-01]
9 | 34.2 | -81.01 | -1.1 | 7.9 | -106.26 | -1.1 | – | – | – | – | Cc1cc(CNC(=O)c2csc(N3CCN(c4cccc(C(F)(F)F)c4)CC3)n2)ccc1Cl [Compound 16]
10 | 1110 | – | – | 360 | – | – | -85.56 | -1.1 | -60.22 | -1.2 | Cc1cccc(CNC(=O)c2csc(N3CCN(c4cccc(OCc5ccccc5C)c4)CC3)n2)c1 [NCGC01211373-01]
11 | 310 | – | – | – | – | – | -95.63 | -1.1 | -26.97 | 4 | Cc1cccc(CNC(=O)c2csc(N3CCN(c4cccc(Sc5ccc(C)cc5C)c4)CC3)n2)c1 [NCGC01211184-01]
12 | 880 | – | – | 1150 | – | – | -90.33 | -1.3 | -94.91 | -1.1 | Cc1cccc(CNC(=O)c2csc(N3CCN(c4ccc(F)cc4)CC3)n2)c1 [NCGC01219292-01]
13 | – | -23.84 | 4 | 15800 | -91.30 | -1.1 | – | – | – | – | Cc1ccc(C)n1-c1ccc(CNC(=O)c2csc(N3CCN(c4cccc(C(F)(F)F)c4)CC3)n2)cc1 [NCGC01408046-01]
14 | 3130 | – | – | 910 | – | – | -86.59 | -1.1 | -85.15 | -1.1 | CCc1ccc(N2CCN(c3nc(C(=O)NCc4cccc(C)c4)cs3)CC2)cc1 [NCGC01211128-01]
15 | 3130 | – | – | 510 | – | – | -61.19 | -1.4 | -89.06 | -1.1 | Cc1cccc(CNC(=O)c2csc(N3CCN(c4c(Cl)cccc4Cl)CC3)n2)c1 [NCGC01211131-01]
16 | 1080 | -91.56 | -1.1 | 14.1 | -100.75 | -1.1 | – | – | – | – | COc1cc(C)cc(CNC(=O)c2csc(N3CCN(c4cccc(C(F)(F)F)c4)CC3)n2)c1 [NCGC01407935-01]
17 | – | -16.71 | 4 | 1580 | -41.09 | -1.2 | – | – | – | – | O=C(NC1CC1)c1ccc(CNC(=O)c2csc(N3CCN(c4cccc(C(F)(F)F)c4)CC3)n2)cc1 [NCGC01397384-01]
18 | 965 | -69.34 | -1.4 | 2.8 | -102.00 | -1.1 | – | – | – | – | O=C(NCc1ccc2cc(Cl)ccc2c1)c1csc(N2CCN(c3cccc(C(F)(F)F)c3)CC2)n1 [NCGC01407805-01]
19 | 20000 | -99.22 | -1.1 | 200 | -21.51 | 5 | – | – | – | – | Cc1cccc(COc2ccc(CNC(=O)c3csc(N4CCN(c5cccc(C(F)(F)F)c5)CC4)n3)cc2)c1 [NCGC01407816-01]
20 | 390 | – | – | 580 | – | – | -73.43 | -1.2 | -72.19 | -1.2 | Cc1cccc(CNC(=O)c2csc(N3CCN(c4cc(Cl)c(Cl)c(Cl)c4)CC3)n2)c1 [NCGC01211545-01]
21 | 766 | -101.81 | -1.1 | 5.6 | -100.05 | -1.1 | – | – | – | – | N#Cc1ccc(CNC(=O)c2csc(N3CCN(c4cccc(C(F)(F)F)c4)CC3)n2)cc1F [NCGC01397293-01]
22 | 2790 | – | – | 2890 | – | – | -82.14 | -1.1 | -71.38 | -1.2 | COc1cc(N2CCN(c3nc(C(=O)NCc4cccc(C)c4)cs3)CC2)ccc1F [NCGC01211397-01]
23 | – | 0.00 | 4 | 89.2 | -65.00 | -1.2 | – | – | – | – | O=C(Nc1ccc(F)cc1)c1ccc(CNC(=O)c2csc(N3CCN(c4cccc(C(F)(F)F)c4)CC3)n2)cc1 [NCGC01407706-01]
24 | 2240 | -130.58 | -1.1 | 794 | -73.90 | -1.2 | – | – | – | – | O=C(NCc1ccc(N2CCNC2=O)cc1)c1csc(N2CCN(c3cccc(C(F)(F)F)c3)CC2)n1 [NCGC01407779-01]
25 | 2210 | – | – | 1020 | – | – | -85.13 | -1.3 | -92.09 | -1.1 | Cc1cccc(CNC(=O)c2csc(N3CCN(c4ccc(C)c(C)c4)CC3)n2)c1 [NCGC01211295-01]
26 | 50 | – | – | 910 | – | – | -98.32 | -1.3 | -91.28 | -1.1 | COc1ccccc1N1CCN(c2nc(C(=O)NCc3cccc(C)c3)cs2)CC1 [NCGC01210996-01]
